This is an account of results in patent US20240158418A1 (C4 Therapeutics, Inc., priority 2021, published 2024).

Like-named read-outs stand apart in the source and are kept apart here.

What all share (assay type): cell-based
For one experiment, the target named is T1, pY1068 EGFR L858R (Homo sapiens, UniProt P00533, L858R).
T1 construct: NCI-H3255 (harboring EGFR heterozygous L858R mutation); host or cells: NCI-H3255
Put plainly: Phospho-EGFR (pY1068) inhibition HTRF, NCI-H3255. As to conditions: 6 hours, read-out: pEGFR IC50. Put shortly: (§1)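 Controls were untreated cells (negative) and cell-free wells (positive). Cells were exposed for 6 h at 37 °C in 10% FBS-supplemented RPMI to an 11-point, half-log series starting at 10 μM. HTRF quantified pY1068 EGFR (IC50) or pan-EGFR total protein in A431 (DC50).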
In general terms: In TR-FRET formats the signal depends on donor and acceptor labels being close together.

The target of the next experiment is EGFR L858R (Homo sapiens, UniProt P00533, L858R). Put plainly: EGFR degradation, Total EGFR (L858R-specific) HTRF, NCI-H3255. More on the design: NCI-H3255 (harboring EGFR heterozygous L858R mutation); host or cells: NCI-H3255. Particulars: 6 hours. In short, it runs like this: (§2)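 Cells in RPMI 1640 + 10% FBS treated 6 h at 37°C with compound, 11-point half-log titration from 10 μM top, in duplicate. pY1068 and total EGFR read by HTRF (pan-EGFR antibody for wild-type A431; L858R-specific for mutants); IC50 for phospho inhibition, DC50 for 50% degradation.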
EGFR L858R, sequence (P00533 25-1210 L858R): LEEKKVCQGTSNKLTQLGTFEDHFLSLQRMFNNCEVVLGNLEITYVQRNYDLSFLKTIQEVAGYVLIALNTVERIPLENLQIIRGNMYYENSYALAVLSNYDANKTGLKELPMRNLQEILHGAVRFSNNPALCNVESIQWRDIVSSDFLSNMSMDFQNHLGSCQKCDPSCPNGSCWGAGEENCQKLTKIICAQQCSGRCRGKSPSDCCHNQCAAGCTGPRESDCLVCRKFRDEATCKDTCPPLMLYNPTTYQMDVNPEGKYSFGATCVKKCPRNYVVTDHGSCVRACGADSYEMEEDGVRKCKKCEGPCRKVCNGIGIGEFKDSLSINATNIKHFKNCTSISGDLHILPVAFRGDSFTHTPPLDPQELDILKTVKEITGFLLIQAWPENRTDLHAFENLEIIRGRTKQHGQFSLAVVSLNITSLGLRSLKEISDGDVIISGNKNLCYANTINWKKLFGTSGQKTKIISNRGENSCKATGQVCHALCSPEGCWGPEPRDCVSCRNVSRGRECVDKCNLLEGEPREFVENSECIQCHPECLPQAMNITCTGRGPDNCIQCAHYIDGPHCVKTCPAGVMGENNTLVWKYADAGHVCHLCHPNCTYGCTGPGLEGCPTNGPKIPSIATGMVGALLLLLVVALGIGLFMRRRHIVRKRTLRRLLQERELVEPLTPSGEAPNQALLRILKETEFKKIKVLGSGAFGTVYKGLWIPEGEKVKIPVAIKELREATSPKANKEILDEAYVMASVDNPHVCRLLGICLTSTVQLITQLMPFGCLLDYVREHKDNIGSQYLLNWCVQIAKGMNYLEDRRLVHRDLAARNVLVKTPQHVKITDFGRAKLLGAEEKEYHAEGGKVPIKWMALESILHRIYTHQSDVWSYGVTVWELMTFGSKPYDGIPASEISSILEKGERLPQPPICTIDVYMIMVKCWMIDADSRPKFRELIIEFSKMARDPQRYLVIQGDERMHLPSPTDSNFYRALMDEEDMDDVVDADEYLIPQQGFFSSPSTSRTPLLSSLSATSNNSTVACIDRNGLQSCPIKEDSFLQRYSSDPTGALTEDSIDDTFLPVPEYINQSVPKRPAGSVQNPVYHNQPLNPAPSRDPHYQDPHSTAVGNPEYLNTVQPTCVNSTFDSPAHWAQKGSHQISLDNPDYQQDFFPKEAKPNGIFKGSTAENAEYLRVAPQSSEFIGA

For experiment [1], the system named is BaF3 cells expressing EGFR L858R-L792H. Description: Ba/F3 EGFR cell viability (CellTiter-Glo), L858R-L792H. As to conditions: Mus musculus, read-out: CTGlo (GI50). From the text:
(§3) RPMI 1640 media, cell culture flasks, and 384-well microplates were purchased from VWR (Radnor, PA, USA). Fetal bovine serum (FBS) was purchased from Life Technologies (Carlsbad, CA, USA) and CellTiter-Glo® was purchased from Promega (Madison, WI, USA). The Ba/F3 parental cell line was purchased from CrownBio (Santa Clara, CA). BaF3 cell lines ectopically expressing the EGFR mutations L858R, L858R-T790M, L858R-C797S, and L858R-T790M-C797S were purchased from CrownBio and EGFR mutations L858R-L718Q, L858R-T790M-L718Q, L858R-L792H, and L858R-T790M-L792H, were purchased from Signosis (Santa Clara, CA).
(§4) Cell viability was assessed based on the quantification of ATP using the CellTiter-Glo® assay (Promega, Madison, WI, USA). To determine the effect of compounds on cell viability, all Ba/F3 cell lines were plated at a cell density of 2000 cells/well in 384-well plates using RPMI 1640+10% FBS and treated with compounds of interest using a 10-point half-log dilution series in duplicate for 72 hours, with the highest dose set at […]. CellTiter-Glo® reagent was then added and luminescence signals were measured using an EnVision™ Multimode plate reader (Perkin Elmer, Santa Clara, CA). For data normalization, cells untreated with the test compounds at Time=72 hours were set to 100% (equivalent to maximal cell growth after 72 hours); cells untreated with the test compounds at Time=0 hours were set to 0% (equivalent to cytostasis); and media-only wells were set to −100% (equivalent to complete cytotoxicity). % Viability was determined by normalizing the signal with positive and DMSO treated negative controls on the same microtiter plate. The half-maximal inhibition of cell growth (GI50) is computed from where the fitted curve crosses 50% while the half-maximal lethal dose (LD50) is computed from where the fitted curve crosses −50%.

For a further experiment, the target named is T2, EGFR WT (Homo sapiens, UniProt P00533).
T2 construct: A431 (harboring EGFR wildtype) was purchased from ATCC; host or cells: A431
Put plainly: EGFR degradation, Total EGFR (pan-EGFR) HTRF, A431. As to conditions: A431 (wild-type), 6 hours; read-out: tEGFR DC50. From the text: NCI-H1975 (harboring EGFR heterozygous L858R-T790M mutations) and NCI-H3255 (harboring EGFR heterozygous L858R mutation) were purchased from ATCC and NCI, respectively. NCI-H1975+CS (harboring EGFR heterozygous L858R-T790M-C797S mutations) was generated using CRISPR technology to introduce the additional C797S mutation by Horizon Discovery. A431 (harboring EGFR wildtype) was purchased from ATCC. RPMI 1640 no-phenol red medium and fetal bovine serum (FBS) were purchased from Gibco (Grand Island, NY, USA). Cell culture flasks and 384-well microplates were acquired from VWR (Radnor, PA, USA). Phosphorylated (pY1068) EGFR and Total EGFR (using L858R-specific detection antibody and pan-EGFR antibody for EGFR mutant cell lines and EGFR wild-type cell lines, respectively) HTRF assay kits were purchased from Cisbio (Bedford, MA, USA).
Degradation of EGFR protein containing L858R mutation or wild-type was determined based on quantification of FRET signal using a Total EGFR (L858R-specific or pan-EGFR detecting) HTRF assay kit. Phospho-EGFR (pEGFR) inhibition was determined based on quantification of FRET signal using a pY1068 EGFR HTRF assay kit. In separate assay plates, test compounds were added to the 384-well plate from a top concentration of 10 μM with 11 points, half log titration in duplicates. For each assay, 12.5 uL of cells suspended in assay media (RPMI 1640 no-phenol red medium+10% FBS) at cell densities indicated for each cell line in Table 8 below were dispensed using a multi-channel pipette to 384-well low volume white HTRF microplates containing a duplicate concentration range of test compounds and DMSO controls. The plates were kept at 37° C. with 5% CO2 for 6 hours and then incubated with either phospho EGFR or Total EGFR HTRF detection antibodies according to the cell line and EGFR mutant being assayed. Cells treated in the absence of the test compound were the negative control. Positive control was set by wells containing all reagents but no cells. FRET signal was acquired on EnVision™ Multilabel Reader (PerkinElmer, Santa Clara, CA, USA). Compound concentration that achieves 50% degradation and inhibition was reported as DC50 and IC50, respectively.

The test system of experiment [2] is BaF3 cells expressing EGFR L858R-T790M. Put plainly: Ba/F3 EGFR cell viability (CellTiter-Glo), L858R-T790M. As to conditions: Mus musculus, read-out: CTGlo (GI50).
Source text: as §3, §4
In general terms: Cellular ATP, detected with luciferase, serves as a proxy for viable cell number.

The test system of experiment [3] is BaF3 cells expressing EGFR L858R-T790M-L718Q. Description: Ba/F3 EGFR cell viability (CellTiter-Glo), L858R-T790M-L718Q. As to conditions: Mus musculus, read-out: CTGlo (GI50).
Source text: as §3, §4

Experiment [4] relates to BaF3 cells expressing EGFR L858R-C797S. Put plainly: Ba/F3 EGFR cell viability (CellTiter-Glo), L858R-C797S. As to conditions: Mus musculus, read-out: CTGlo (GI50).
Source text: as §3, §4

The target in the next experiment is T3, EGFR L858R-T790M-C797S (Homo sapiens, UniProt P00533, C797S/L858R/T790M).
T3 construct: generated using CRISPR technology to introduce the additional C797S mutation by Horizon Discovery; host or cells: NCI-H1975+CS (CRISPR knock-in of C797S)
T3 sequence (P00533 25-1210 T790M/C797S/L858R): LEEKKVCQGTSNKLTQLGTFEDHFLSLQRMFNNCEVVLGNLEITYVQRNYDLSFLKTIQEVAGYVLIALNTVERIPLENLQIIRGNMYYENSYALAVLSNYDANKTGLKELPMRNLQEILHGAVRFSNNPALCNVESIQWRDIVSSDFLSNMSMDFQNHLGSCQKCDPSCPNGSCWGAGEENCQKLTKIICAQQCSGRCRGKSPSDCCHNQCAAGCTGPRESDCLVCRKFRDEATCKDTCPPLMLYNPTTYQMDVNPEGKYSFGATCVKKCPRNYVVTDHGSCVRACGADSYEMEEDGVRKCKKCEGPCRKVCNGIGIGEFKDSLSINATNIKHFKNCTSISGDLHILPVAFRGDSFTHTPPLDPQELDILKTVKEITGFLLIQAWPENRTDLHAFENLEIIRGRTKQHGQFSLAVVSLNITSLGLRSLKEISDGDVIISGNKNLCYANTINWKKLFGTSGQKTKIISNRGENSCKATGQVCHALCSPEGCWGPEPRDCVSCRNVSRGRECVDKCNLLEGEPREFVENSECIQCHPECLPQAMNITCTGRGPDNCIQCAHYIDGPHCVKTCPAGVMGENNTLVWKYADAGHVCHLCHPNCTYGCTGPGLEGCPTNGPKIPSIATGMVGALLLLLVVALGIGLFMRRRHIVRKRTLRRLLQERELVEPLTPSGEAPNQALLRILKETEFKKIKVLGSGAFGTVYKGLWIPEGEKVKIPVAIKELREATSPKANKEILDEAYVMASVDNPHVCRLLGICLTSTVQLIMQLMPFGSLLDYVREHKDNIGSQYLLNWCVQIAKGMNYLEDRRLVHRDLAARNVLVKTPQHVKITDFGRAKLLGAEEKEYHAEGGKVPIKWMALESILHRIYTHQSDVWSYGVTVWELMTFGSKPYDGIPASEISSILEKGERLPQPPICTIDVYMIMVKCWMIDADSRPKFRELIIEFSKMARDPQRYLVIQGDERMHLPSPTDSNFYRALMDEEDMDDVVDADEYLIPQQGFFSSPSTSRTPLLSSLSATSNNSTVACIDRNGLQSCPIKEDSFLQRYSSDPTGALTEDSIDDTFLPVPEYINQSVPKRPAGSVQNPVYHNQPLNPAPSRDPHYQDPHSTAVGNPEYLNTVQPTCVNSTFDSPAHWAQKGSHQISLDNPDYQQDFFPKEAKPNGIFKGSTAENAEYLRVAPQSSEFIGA
Description: EGFR degradation, Total EGFR (L858R-specific) HTRF, NCI-H1975+CS. Particulars: 6 hours. In short, it runs like this:
as §2

In another experiment the target is T4, pY1068 EGFR L858R-T790M (Homo sapiens, UniProt P00533, L858R/T790M).
T4 construct: NCI-H1975 (harboring EGFR heterozygous L858R-T790M mutations); host or cells: NCI-H1975
T4 sequence (P00533 25-1210 T790M/L858R): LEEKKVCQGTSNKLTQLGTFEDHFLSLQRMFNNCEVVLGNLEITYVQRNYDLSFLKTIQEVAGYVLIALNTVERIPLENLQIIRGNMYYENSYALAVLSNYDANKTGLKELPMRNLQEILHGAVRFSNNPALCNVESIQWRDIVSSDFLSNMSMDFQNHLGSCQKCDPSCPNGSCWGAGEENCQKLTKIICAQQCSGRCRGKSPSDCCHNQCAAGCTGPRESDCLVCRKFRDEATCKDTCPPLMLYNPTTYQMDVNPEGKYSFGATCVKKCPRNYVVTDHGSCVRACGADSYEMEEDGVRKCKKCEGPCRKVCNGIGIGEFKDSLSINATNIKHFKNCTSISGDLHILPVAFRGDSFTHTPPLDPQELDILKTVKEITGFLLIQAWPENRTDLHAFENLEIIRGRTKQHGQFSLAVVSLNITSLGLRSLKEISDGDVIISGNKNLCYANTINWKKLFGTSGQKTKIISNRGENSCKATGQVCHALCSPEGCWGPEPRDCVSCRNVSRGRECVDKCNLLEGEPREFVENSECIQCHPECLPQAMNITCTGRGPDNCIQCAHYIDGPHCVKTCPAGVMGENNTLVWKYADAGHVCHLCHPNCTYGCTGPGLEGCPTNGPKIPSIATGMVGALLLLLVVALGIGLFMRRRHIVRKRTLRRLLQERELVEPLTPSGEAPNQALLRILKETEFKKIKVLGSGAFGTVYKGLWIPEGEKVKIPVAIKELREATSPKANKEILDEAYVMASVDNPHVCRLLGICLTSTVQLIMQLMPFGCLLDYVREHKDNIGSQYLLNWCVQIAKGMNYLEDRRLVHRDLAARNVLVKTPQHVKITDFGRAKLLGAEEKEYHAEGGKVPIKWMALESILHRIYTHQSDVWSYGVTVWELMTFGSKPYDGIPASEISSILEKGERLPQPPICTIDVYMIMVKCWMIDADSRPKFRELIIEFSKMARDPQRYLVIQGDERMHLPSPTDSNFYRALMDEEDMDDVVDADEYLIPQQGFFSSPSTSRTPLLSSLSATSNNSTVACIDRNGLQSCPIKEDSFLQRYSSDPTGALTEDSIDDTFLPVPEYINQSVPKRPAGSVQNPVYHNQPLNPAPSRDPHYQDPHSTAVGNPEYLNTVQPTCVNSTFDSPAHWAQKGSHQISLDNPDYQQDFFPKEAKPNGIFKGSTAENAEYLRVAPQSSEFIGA
Description: Phospho-EGFR (pY1068) inhibition HTRF, NCI-H1975. Particulars: 6 hours, read-out: pEGFR IC50. Put shortly:
as §1

The target of experiment [5] is T5, pY1068 EGFR L858R-T790M-C797S (Homo sapiens, UniProt P00533, C797S/L858R/T790M).
T5 construct: generated using CRISPR technology to introduce the additional C797S mutation by Horizon Discovery; host or cells: NCI-H1975+CS (CRISPR knock-in of C797S)
Put plainly: Phospho-EGFR (pY1068) inhibition HTRF, NCI-H1975+CS. As to conditions: 6 hours, read-out: pEGFR IC50. In short, it runs like this:
as §1

The mark [6] stands for this setting: H3255 (L858R), read-out: tEGFR DC50.
Setting [7] is: Table 9A, NCI-H3255 cells, Total EGFR HTRF, read-out: H3255 EGFR DC50.
Where [8] appears, read: H1975 + CS (L858R-T790M-C797S), read-out: tEGFR DC50.
[9] abbreviates: Table 9A, NCI-H1975+CS cells, Total EGFR HTRF, read-out: H1975+ CS EGFR DC50.

T1 sequence (P00533 25-1210 L858R): as the sequence (P00533 25-1210 L858R) above

As a reminder, the IC50 is the concentration needed to halve the response being measured. A word on the DC50: it is the midpoint of the concentration-degradation curve. The GI50 is the concentration that inhibits growth by half. On to `O=C1CC[C@H](Nc2ccc(N3CCC(O)(CC(=O)N4CC5(C4)CN(c4ccc(-c6cc(F)c7c(c6)C(=O)N(C(C(=O)Nc6nccs6)c6ncn8c6CCC8)C7)cc4)C5)CC3)c(F)c2)C(=O)N1` (stereo partly drawn) [Compound 1, 2-(6,7-dihydro-5H-pyrrolo[1,2-c]imidazol-1-yl)-2-[6-[4-[2-[2-[1-[4-[[(3S)-2,6-dioxo-3-piperidyl]amino]-2-fluoro-phenyl]-4-hydroxy-4-piperidyl]acetyl]-2,6-diazaspiro[3.3]heptan-6-yl]phenyl]-4-fluoro-1-oxo-isoindolin-2-yl]-N-thiazol-2-yl-acetamide], for which the IC50 was 5 nM at pY1068 EGFR L858R, 9 nM at pY1068 EGFR L858R-T790M and 10 nM in experiment [5]. In addition, the DC50 was 5 nM on EGFR L858R (setting [6]); less than 50 nM at EGFR L858R (setting [7]); greater than 10000 nM at EGFR WT; 12 nM on EGFR L858R-T790M-C797S (setting [8]); less than 50 nM at EGFR L858R-T790M-C797S (setting [9]). Also, the GI50 was 9 nM in experiment [1], 9 nM in [2], 44 nM in experiment [3] and 5 nM in experiment [4].

Consider `Cn1nc(N2CCC(=O)NC2=O)c2ccc([C@H]3CCN(CC(=O)N4CC5(C4)CN(c4ccc(-c6cc(F)c7c(c6)C(=O)N(C(C(=O)Nc6nccs6)c6ncn8c6CCC8)C7)cc4)C5)CC3(F)F)cc21` (stereo partly drawn) [Compound 2, 2-(6,7-dihydro-5H-pyrrolo[1,2-c]imidazol-1-yl)-2-[6-[4-[2-[2-[(4R)-4-[3-(2,4-dioxohexahydropyrimidin-1-yl)-1-methyl-indazol-6-yl]-3,3-difluoro-1-piperidyl]acetyl]-2,6-diazaspiro[3.3]heptan-6-yl]phenyl]-4-fluoro-1-oxo-isoindolin-2-yl]-N-thiazol-2-yl-acetamide], for which the IC50 at pY1068 EGFR L858R is 8 nM; on pY1068 EGFR L858R-T790M it was 14 nM; in [5], 29 nM. The DC50 at EGFR L858R (setting [6]) is 6 nM; at EGFR L858R (setting [7]), less than 50 nM; at EGFR WT, greater than 10000 nM; on EGFR L858R-T790M-C797S (setting [8]), 19 nM; on EGFR L858R-T790M-C797S (setting [9]), less than 50 nM. The GI50 in [1] was 4 nM; in [2] it was 6 nM; in [3], 22 nM; in experiment [4], 3 nM.
